The data set is described as follows: gradient 5% acetonitrile 3 min, to 50% in 2 min, to 85% in 15 min, held 3 min, 100 µL/min. The settings on record: column: Zorbax Extend-C18 2.1 x 50 mm; eluents: water / acetonitrile, 0.1% formic acid. The essentials:
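Retention times come from adduct peaks that were picked computationally and then checked by hand. The standards, pure and pooled in mixtures of ~100 molecules, were run on a Zorbax Extend-C18 column (2.1 × 50 mm, 1.8 μm) at 100 μL/min with water and acetonitrile, each with 0.1% formic acid. Detection was by quadrupole time-of-flight mass spectrometry in positive and negative ionization mode, with a dead volume of 40 μL and a dwell volume of 900 μL.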
`Cc1ccc(Cl)cc1N1CCN(CC(O)COc2ccccc2[N+](=O)[O-])CC1` (centres undefined) registered an RP-LC retention time of 626 s.

As for `COc1ccc(NS(=O)(=O)c2c(C)nn(-c3ccc(-c4ccc(C)c(C)c4)nn3)c2C)cc1OC`, the RP-LC retention time came out at 1050 s.

`COc1ccccc1N1CCN(CCCNc2cc(=O)n(C)c(=O)n2C)CC1` gave an RP-LC retention time of 637 s.

In turn, `CC1Oc2ccc(S(=O)(=O)N3CCC(C(=O)Nc4ccc(C(C)C)cc4)CC3)cc2NC1=O` (centres undefined) yielded an RP-LC retention time of 916 s.

As for `CCCCNC(=O)C(CC)n1nc(C)c2nn(-c3ccccc3)c(C)c2c1=O` (centres undefined), the RP-LC retention time is 934 s.

Molecule `O=C(NOCC1CC1)c1cc(Br)c(F)c(F)c1Nc1ccc(I)cc1Cl` returned an RP-LC retention time of 1170 s.

As for `Cc1cccc(CCNC(=S)Nc2ccc3nc(N4CCN(C)CC4)cc(C)c3c2)c1`, the RP-LC retention time stood at 618 s.

Molecule `O=S(=O)(NCc1ccc(Br)cc1)c1ccc2c(c1)-c1oncc1CO2` registered an RP-LC retention time of 958 s.

Turning to `Cc1ccc(NC(=O)Cn2ccc3sccc3c2=O)c(C)c1`, the RP-LC retention time turned out to be 766 s.

`CCn1ncc(CN(C)C(=O)c2cn3ccccc3n2)c1C` showed an RP-LC retention time of 556 s.

In turn, `CCn1cc(-c2ccc(Cl)cc2)cc1C(=O)NC(C)c1cccnc1` (centres undefined) showed an RP-LC retention time of 758 s.

`O=C(Cn1cnc2nc(N3CCC(C(=O)NC4CC4)CC3)sc2c1=O)Nc1cccc(F)c1` had an RP-LC retention time of 655 s.

As for `COc1ccc(F)cc1S(=O)(=O)NCC1(c2cccs2)CC1`, the RP-LC retention time was 933 s.

The molecule `c1cc(-c2nc(-c3ccnc(N4CCOCC4)c3)no2)ccn1` came in with an RP-LC retention time of 718 s.

Molecule `CCOC(=O)CNC(=O)NC1CCN(C2=NS(=O)(=O)C(c3ccc(C)cc3)=C2C)CC1` showed an RP-LC retention time of 743 s.

Molecule `CC(=O)c1cccc(NC2=NS(=O)(=O)C(c3cccc(Cl)c3)=C2C)c1` had an RP-LC retention time of 902 s.

Consider `COc1cccc(-c2nnc(Cc3nc(-c4ccc(Cl)cc4)no3)o2)c1`, for which the RP-LC retention time amounted to 1100 s.

`O=C(Nc1nc(CC(=O)N2CCCc3ccccc32)cs1)c1ccco1` came in with an RP-LC retention time of 743 s.

`Cc1cc(-c2nn3c(-c4cccc(F)c4)nnc3s2)c2ccccc2n1` yielded an RP-LC retention time of 887 s.

As for `O=C(c1cccc(F)c1)N1CCN(C(=O)c2nnn3c2COC(c2ccc(Cl)cc2)C3)CC1` (centres undefined), the RP-LC retention time is 931 s.

`COc1ccc(Cl)cc1N1CC(c2nc(-c3cccs3)no2)CC1=O` (centres undefined) registered an RP-LC retention time of 930 s.

The molecule `Cc1ccc(C2=NC3(CCN(C(C)C)CC3)NC(c3ccccc3O)C2)cc1` (centres undefined) yielded an RP-LC retention time of 612 s.

`O=C1N(c2cccc(F)c2)c2ncccc2S(=O)(=O)N1Cc1ccccc1` gave an RP-LC retention time of 1020 s.

For the molecule `COc1cccc(NC(=O)Cn2nc3cc(C)nc(-c4ccccc4)n3c2=O)c1`, the RP-LC retention time is 803 s.

Molecule `C[C@@H](NC(=O)c1cccc(Br)c1)C(=O)NCc1cscn1` returned an RP-LC retention time of 665 s.

With `O=C(OCc1ccncc1)c1cn(-c2cccc(F)c2)c(=O)c2ccccc12`, the RP-LC retention time worked out at 713 s.

The molecule `CCNC(=O)c1cc(N(C)C)nc2c(Cl)cccc12` registered an RP-LC retention time of 730 s.

For the molecule `CN(C)C(=O)c1cc(N(C)C)nc2ccc(F)cc12`, the RP-LC retention time amounted to 575 s.

In turn, `Brc1ccc(OCc2nn3c(-c4cccnc4)nnc3s2)cc1` gave an RP-LC retention time of 885 s.

`CCC1CN(C(=O)N2CCC(C(=O)NCCCOC)CC2)c2cc(C)ccc2O1` (centres undefined): the RP-LC retention time stood at 757 s.

Turning to `O=C(Cc1csc(-c2ccccc2F)n1)NCCc1c[nH]c2ccccc12`, the RP-LC retention time is 904 s.

In the case of `COc1ccc(CNC(=O)c2cnc3c(c2)c(=O)n(C)c(=O)n3-c2ccc(OC)cc2)cc1`, the RP-LC retention time is 841 s.

`COc1ncc(C(=O)Nc2ccccc2)c(C)n1`: the RP-LC retention time amounted to 698 s.

As for `CC(Oc1cccc(Cl)c1)C(=O)N1CCn2cnnc2C1` (centres undefined), the RP-LC retention time is 622 s.

`CCn1c(=O)n(CC)c2cc(S(=O)(=O)C3CCCCC3)c(NC(C)=O)cc21` came in with an RP-LC retention time of 791 s.

`CC1(C(=O)NC2CCCCC2)CN(S(C)(=O)=O)CC(=O)N1c1ccc(Cl)cc1` (centres undefined) yielded an RP-LC retention time of 860 s.

For `NCC(O)COc1cccc2ccccc12` (centres undefined), the RP-LC retention time was determined as 679 s.

`CNC(=O)CCc1nc2ccccc2n(CC(=O)NCCCc2ccccc2)c1=O` returned an RP-LC retention time of 704 s.

On to `CCN(CC)CCNC(=O)C1CCCN(c2ncc(-c3ccc(F)cc3)cn2)C1` (centres undefined), for which the RP-LC retention time amounted to 688 s.

`CCOc1ccc(-n2c(=O)c3sccc3n(Cc3nc(-c4cccc(OC)c4)no3)c2=O)cc1` yielded an RP-LC retention time of 1000 s.

The molecule `Cc1ccc(-c2ncc(C(=O)Nc3ccc4c(c3)OCCO4)c(-c3ccncc3)n2)cc1` came in with an RP-LC retention time of 880 s.

In turn, `CC(=O)NCc1nc(-c2ccc(N3CCSCC3)nc2)no1` came in with an RP-LC retention time of 653 s.

Consider `COc1cccc(-c2cc3n(n2)CCCN(C(=O)COc2ccccc2)C3)c1`, for which the RP-LC retention time amounted to 788 s.

For the molecule `CCn1c(=O)c2c(cc(C)n2C)n(CC(=O)Nc2c(C)cccc2C)c1=O`, the RP-LC retention time turned out to be 756 s.

As to `CSc1ccc(-c2nc3cnccn3c2Nc2ccc(C)cc2C)cc1`, the RP-LC retention time was 644 s.

Turning to `O=C(OCn1nnc2ccccc2c1=O)c1ccc(S(=O)(=O)N2CCCCC2)cc1`, the RP-LC retention time stood at 936 s.

Take `CCOC(=O)c1sc2ncnc(N3CCc4ccccc4C3)c2c1C`: the RP-LC retention time is 1310 s.

`Fc1ccc(-c2csc(Cc3nc(-c4cccc(Cl)c4)no3)n2)cc1` gave an RP-LC retention time of 1310 s.

Molecule `Cc1ccc(CNC(=O)CCC2CCN(c3cc(NC4CC4)ncn3)CC2)o1` returned an RP-LC retention time of 660 s.

For the molecule `Cc1ccc(C(=O)NCC2CN(C(C)C)CC23CCCCC3)s1` (centres undefined), the RP-LC retention time worked out at 670 s.

`CC(C)NC(=O)c1ccc(OCC2CCN(C(=O)c3cc(F)ccc3Cl)CC2)cc1` came in with an RP-LC retention time of 891 s.

For the molecule `Cc1cc(C)cc(NC(=O)N(C)Cc2nc3cc(C(=O)N(C)C)ccc3n2C)c1`, the RP-LC retention time turned out to be 639 s.

In turn, `COc1cccc(-c2noc3ncnc(N4CCN(c5ccccn5)CC4)c23)c1` displayed an RP-LC retention time of 660 s.

Take `Cc1ccc(S(=O)(=O)c2cnc(N3CCN(c4ccccn4)CC3)nc2N)cc1C`: the RP-LC retention time was 677 s.

`Cc1ccc2[nH]c(=O)c(CCC(=O)NCCN3CCc4ccccc4C3)cc2c1`: the RP-LC retention time turned out to be 634 s.

Molecule `O=c1c2nc(-c3ccc(F)cc3)cn2ccn1-c1ccc(F)cc1` displayed an RP-LC retention time of 795 s.

Consider `N#CCCN(CCC#N)c1ccc(/C=C2\N=C(c3cc([N+](=O)[O-])ccc3Cl)OC2=O)cc1`, for which the RP-LC retention time came to 1010 s.

Take `CC(C)n1cnc2ccc(-c3noc(COc4ccc(F)cc4)n3)cc21`: the RP-LC retention time stood at 783 s.

Molecule `CCc1nc(-c2csc(S(=O)(=O)N3CCC(C(=O)Nc4cc(C)ccn4)CC3)c2)no1` yielded an RP-LC retention time of 749 s.

As for `CC(C)N1C(=O)c2cccnc2Sc2cc(NC(=O)Cc3cccc(F)c3)ccc21`, the RP-LC retention time was 876 s.

In turn, `COc1cccc(-c2csc(-c3nnn(-c4ccc(C)c(C)c4)c3N)n2)c1` showed an RP-LC retention time of 1170 s.

The molecule `Cc1ccccc1CNC(=O)C1CCCN1S(=O)(=O)c1cc2c(cc1Cl)NC(=O)CO2` (centres undefined) displayed an RP-LC retention time of 786 s.

`COc1ccc(C(=O)N2CCC(c3noc(-c4cnccn4)n3)C2)cn1` (centres undefined) came in with an RP-LC retention time of 790 s.

In turn, `CSc1ccc(-c2nc3ccc(Br)cn3c2Nc2ccc(C)cc2)cc1` returned an RP-LC retention time of 986 s.

Regarding `Cc1ccc(NC(=O)N2CCc3cn(C)c4cccc(c34)C2)cc1C`, the RP-LC retention time amounted to 981 s.

In the case of `CCCNC(=O)C1CCN(c2ccc(SCC(=O)Nc3cc(F)ccc3F)nn2)CC1`, the RP-LC retention time came out at 670 s.

Take `CC(C)(C)c1ccc(C(=O)NC2(c3nc(-c4cccnc4)no3)CCCCC2)cc1`: the RP-LC retention time was found to be 1160 s.

As for `O=C(Nc1ccc(F)cc1F)N1CCc2nc(-c3ccccc3)ncc2C1`, the RP-LC retention time turned out to be 881 s.

Regarding `CCCN1C(=O)COc2ccc(-c3noc(Cc4ccc(OC)cc4)n3)cc21`, the RP-LC retention time came to 1080 s.

Molecule `O=C(NCc1ccco1)c1cccc(Nc2c(-c3ccc(Cl)cc3)nc3cnccn23)c1` showed an RP-LC retention time of 826 s.

As to `Cc1nn(C(C)C(=O)NCCCN(C)C2CCCCC2)c(=O)c2nn(-c3ccccc3)c(C)c12` (centres undefined), the RP-LC retention time turned out to be 656 s.

Regarding `O=S(=O)(NCCC1=CCCCC1)c1cccc(-c2nc(-c3ccccc3)no2)c1`, the RP-LC retention time came to 1360 s.

As for `CC(=O)N1CCc2ccccc2C1C(=O)N1CCN(c2ccc(F)cc2)CC1` (centres undefined), the RP-LC retention time is 576 s.

In the case of `CNS(=O)(=O)c1cc(-c2nnc(-c3ccccc3)o2)ccc1OC`, the RP-LC retention time was determined as 786 s.

`O=C(O)c1cccc2c1CCN2S(=O)(=O)c1ccccc1` showed an RP-LC retention time of 793 s.

As for `CN(CC1CCOCC1)S(=O)(=O)c1cccc(Cl)c1`, the RP-LC retention time is 876 s.

For the molecule `COc1ccc(-c2ccc(=O)[nH]n2)cc1OC`, the RP-LC retention time is 582 s.

With `Cc1oc(-c2ccc(C(=O)N3CCCCC3)cc2)nc1CS(=O)(=O)c1ccccc1`, the RP-LC retention time worked out at 843 s.

On to `CCN(CC)C(=O)c1ccc2c(c1)N(CC(=O)NC1CCCCCCC1)C(=O)CS2`, for which the RP-LC retention time was 879 s.

These data come from the METLIN SMRT retention time set (Domingo-Almenara et al. 2019).
